Experiments:
[1] = Trough plasma concentration of compound on day 3 (LC-MS) in the piroxicam-accelerated colitis study; type: in vivo, mice; conditions: trough after the 3rd day of dosing, Compound 1 90 mg/kg SC BID, Compound 2 30 mg/kg SC QD, FIG. 1
Excerpt: (§1) The mice used were female 6 week old FVBMDR1a(+/+) and FVBMDR1a(−/−). Mice were normalized for body weight (BW) upon reaching 7 weeks of age, at which time their diet was switched to powdered chow containing piroxicam for a total of 10 days. BW and diarrhea score was monitored for 21 days (including the 10 days of piroxicam feeding). Blood was taken for trough compound levels on day 3 and at takedown. Rat IgG levels (anti-IL23 or isotype-matched control) were quantitated by ELISA on terminal blood draw. At takedown, colons were photographed and weight/length ratio calculated. Two colons from each group were formaldehyde fixed for future pathology assessment and disease scoring. Remaining colons from each group were dissociated for flow cytometry analysis of infiltrating immune cells.
Compound 1 was dosed at 90 mg/kg in 10% Cremophor-EL, SC, BID, and Compound 2 was dosed at 30 mg/kg in 1% HPMC, SC, QD. Vehicle 1 was 10% Cremophor-EL and was administered SC, BID. Vehicle 2 was 1% HPMC administered SC, QD. Anti-mouse IL-23 Clone G23-8 (Rat IgG1) was dosed at 300 μg/mouse, QD/QOD; Isotype-matched control Clone HRPN (Rat IgG1) was dosed at 300 μg/mouse, QD/QOD.
Blood was taken at trough from all Compound 1- and Compound 2-dosed mice, and plasma analyzed by Liquid Chromatography-Mass Spectroscopy to determine the concentration. Trough blood was taken after the 3rd day of dosing (FIG. 1).

[2] = system: FVBMDR1a(−/−) mice; assay: 21 Day Piroxicam-Accelerated MDR1a−/− Model Of Colitis: colon weight-to-length ratio; type: in vivo; conditions: combined therapy with anti-IL-23; only the combined therapy significantly improved the W:L ratio
Excerpt: Mice of the FVB strain lacking a functional MDR1 gene (also known as ABCB1, P-gp or CD243) develop a spontaneous infammatory bowel disease. This disease can be accelerated by adding the drug piroxicam to their food. FVB mice bearing a functional MDR1 gene are resistant to this disease.
Piroxicam is included in the mouse food for ten days, and the health of the mouse is monitored for a total of 21 days both during and after the piroxicam feeding. Symptoms monitored during this time include severity of diarrhea and changes in body weight.
The colon inflammation manifests itself as a thickening of the colon wall and shortening of the colon itself. The severity of the disease can thus be assessed via the ratio of the colon's weight to its length.
as §1, with “Two colons from each group were formaldehyde fixed for future pathology assessment and disease scoring. Remaining colons from each group were dissociated for flow cytometry analysis of infiltrating immune cells.” left out

Row | SMILES | Trough plasma concentration vs minimal concentration established for 98% receptor coverage [1] | synergy with anti-IL-23 to improve colon inflammation (W:L ratio) [2]
1 | CC(C)(C)c1ccc(S(=O)(=O)Nc2ccc(Cl)cc2C(=O)c2cc[n+]([O-])cc2)cc1 [Compound 1] | met or exceeded the minimal concentration established for 98% receptor coverage | synergized
2 | Cc1cc(NS(=O)(=O)c2ccc(C(C)(C)C)c(F)c2)n(-c2cccc3nc(N)ccc23)n1 [Compound 2] | met or exceeded the minimal concentration established for 98% receptor coverage | synergized
